# Patent publication US20200147037A1, “NEW TREATMENT OF BRAIN CANCER” (priority 2017, published 2020)
# How the values were obtained:
# [1] = test system: glioblastoma; conditions: intracranial pump; WANG et al. 2018; cited from earlier work
# [2] = test system: A549 highly metastatic human lung tumor; conditions: Paclitaxel 25 μM
SMILES,increase in survival [1] [%],% of embryo death [2],Tumor weight [2] [mg],reduction of brain metastases amount compared to controls [2] [%]
CC(C)C[C@H](NC(=O)[C@H](Cc1ccccc1)NC(=O)c1cnccn1)B(O)O [Bortezomib],40,–,–,–
"CC(=O)O[C@H]1C(=O)[C@@]2(C)[C@H]([C@H](OC(=O)c3ccccc3)[C@]3(O)C[C@H](OC(=O)[C@H](O)[C@@H](NC(=O)c4ccccc4)c4ccccc4)C(C)=C1C3(C)C)[C@]1(OC(C)=O)CO[C@@H]1C[C@@H]2O [Paclitaxel, paclitaxel]",–,"24%, N = 21",20.558 ± 1.902,61
